Results: US20240174669A1, “CRYSTALLINE FORMS OF A PARP1 INHIBITOR” (XinThera, Inc., priority 2022, published 2024)
Converted amounts (≈) assume the structure as drawn.

Test: Solubility estimation at RT by visual observation in solvent systems
Type: physicochemical
Settings: organic solvent or mixture, thermodynamic from solid
Method: The solubility of compound 1 was estimated at RT by visual observation in 11 solvent systems. Approximately 5 mg solids were weighed into 8 mL glass vial, and then solvent was added stepwise until solids were dissolved completely or a total of solvent volume reached 5 mL. […] The solubility was estimated and for reference only.

solubility (most of the 11 tested solvent systems, RT, most tested solvents, except DMSO): < 5000 µg/mL
solubility (estimated at RT, visual observation, DMSO): 20000 to 50000 µg/mL (≈ 47.8 to 119 mM)
solubility (estimated at RT, Acetone, ACN, Toluene, EA, n-Heptane, Water, Anisole, DCM, THF): < 1000 µg/mL
solubility (estimated, visual observation, MeOH, THF (50° C.)): 1000 to 5000 µg/mL (≈ 2.39 to 11.9 mM)
Structure (SMILES): CNC(=O)c1ccc(N2CCN(Cc3cnc4cc(C5CC5)c(=O)[nH]c4c3)CC2)cn1 [Starting material, 5-(4-((7-cyclopropyl-6-oxo-5,6-dihydro-1,5-naphthyridin-3-yl)methyl)piperazin-1-yl)-N-methylpicolinamide]
